Patent US8362052B2, “Isoindolin-1-one derivative” (MSD K.K., priority 2009, dated 2013)

Biological target: T1, human GPR120 (Homo sapiens, UniProt Q5NUL3)
T1 construct: expressed in transfected cells
T1 sequence (Q5NUL3 1-361): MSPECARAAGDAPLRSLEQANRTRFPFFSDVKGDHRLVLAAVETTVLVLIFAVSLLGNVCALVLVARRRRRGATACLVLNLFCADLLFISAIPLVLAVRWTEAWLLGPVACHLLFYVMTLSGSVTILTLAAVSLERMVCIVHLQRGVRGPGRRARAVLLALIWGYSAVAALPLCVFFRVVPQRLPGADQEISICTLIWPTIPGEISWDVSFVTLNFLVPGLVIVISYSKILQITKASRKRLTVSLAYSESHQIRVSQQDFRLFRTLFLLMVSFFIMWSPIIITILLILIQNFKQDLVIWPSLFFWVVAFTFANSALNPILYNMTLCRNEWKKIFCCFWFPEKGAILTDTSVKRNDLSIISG
Assay: Measurement of intracellular calcium concentration (FLIPR), GPR120 agonist action
Assay type: cell-based
Details: human GPR120 expression CHO cells, Fluo-4 AM
Excerpt: Primers were synthesized in the domains on the opposite sides of the base sequences of the ORFs of the known GPCR and GPR120 in GenBank Accession NOs. NM 181745 (human) and NM 181748 (mouse), and the genes were cloned by RT-PCR. The base sequences of the primers used are described below. The restriction enzymes, BamHI and EcoRI, recognition sites were introduced for subcloning, respectively.
Using Lipofectamine 2000 (Invitrogen), cDNA of GPR120 receptor was transfected into CHO/NFAT-BLA cells, and drug-resistant cells were isolated to obtain GPR120 stable expression strains. The GPR120-expressed CHO cells were cultured in DMEM/F12 medium containing 10% fetal bovine serum, 100 units/ml penicillin, 0.1 mg/ml streptomycin sulfate, 250 μg/ml Zeocin, 500 μg/mL Geneticin and 15 mM HEPES.
On the day before the measurement day, 4 μM Fluo-4 AM (fluorescence calcium indicator reagent) was incubated to be introduced into the human GPR120 expression CHO cells plated at 20000 cells per well of a 96-well black plate (ViewPlate; Packard) in the presence of 2.5 mM probenecid in a CO2 incubator for 1 hour. […] Variations in the intracellular calcium concentration were measured by Fluorescence Imaging Plate Reader (FLIPR; Molecular Devices) to examine the agonist action, and EC50 values were calculated.

Compound	EC50 [nM]
O=C1c2ccccc2CN1c1cc(F)cc(Oc2cccnc2)c1 [Example 1, 2-[3-fluoro-5-(pyridin-3-yloxy)phenyl]isoindolin-1-one]	850
O=S1(=O)c2ccccc2CN1c1cc(F)cc(Oc2cccnc2)c1 [Example 2, 2-[3-fluoro-5-(pyridin-3-yloxy)phenyl]-2,3-dihydro-1,2-benzisothiazol-1,1-dioxide]	180
